# Test system: MDCK cells
# Test: HGF-induced epithelial-mesenchymal transition / migration of MDCK cells on transwell filters (crystal violet densitometry)
# Format: cell-based
# Settings: Canis lupus familiaris, MDCK, 24 h, Table 3, 10 μM compound, then HGF, percentage like untreated controls (unstimulated cells = maximal effect, HGF only = nil)
# Method: MDCK cells were seeded at confluency into the wells of a transwell filter in DMEM with 10% fetal bovine serum. Cells were cultured for 24 hours. Test compounds, dissolved in DMSO, were added to each test well to a 10 μM final concentration, and then hepatocyte growth factor (HGF) was then added. The MDCK cells were cultured for 24 hours. Concurrently, controls treated with and without HGF and with no test compounds were also prepared.
# After post-HGF addition culturing, transwell filters were prepared by repeated washing using ice cold PBS. The cells were then fixed with paraformaldehyde (3.7%) on ice for 15 minutes to the filters. After fixation, the transwell filters were washed repeatedly with PBS followed by staining with crystal violet for 15 minutes. The transwell filters were washed again with distilled water.
# The upper surface of the transwell filters were swabbed using a cotton-tipped probe. The filters were photographed using a gel documentation system. Densitometry measurements were made on the test samples and compared with control samples.
row,SMILES,inhibition at 10 µM
1,COc1cc(CNc2cc(C(=O)O)ccc2C)cc(Br)c1OC [Compound A-22],33.1%
2,COc1cccc(/C=N/c2ccccc2C(N)=O)c1O [Compound A-4],20.9%
3,COc1ccc(/C=N/c2ccccc2C(N)=O)cc1 [Compound A-15],< 5%
4,NC(=O)c1ccccc1/N=C/c1ccc2ccccc2c1 [Compound A-6],> 5%
5,NC(=O)c1ccccc1/N=C/c1ccccc1Cl [Compound A-2],75.7%
6,COc1cc(CNc2ccc(N3CCOCC3)cc2)cc(Br)c1OC [Compound A-23],31.9%
7,Cc1ccc(/C=N/c2ccccc2C(N)=O)o1 [Compound A-13],11.2%

# Same assay, conditions: Canis lupus familiaris, MDCK, 24 h, Table 4, 10 μM compound, then HGF, percentage like untreated controls (unstimulated cells = maximal effect, HGF only = nil)
row,SMILES,inhibition at 10 µM
1,Cc1nc(NC(=O)c2cccc([N+](=O)[O-])c2)ccc1I [Compound B-3],95.9%
2,Cc1nc(NC(=O)c2cc([N+](=O)[O-])ccc2N2CCOCC2)ccc1I [Compound B-4],31.7%

# Same assay, conditions: Canis lupus familiaris, MDCK, 24 h, Table 5, 10 μM compound, then HGF, percentage like untreated controls (unstimulated cells = maximal effect, HGF only = nil)
row,SMILES,inhibition at 10 µM
1,COc1cc(OC)cc(C(=O)Nc2ccc(N3CCCC3)cc2)c1 [Compound B-29],26.4%
2,O=C(Nc1cccc([N+](=O)[O-])c1)c1ccc(-c2ccccc2)cc1 [Compound B-15],31.6%
3,O=C(Nc1cccc(Cl)c1)c1ccc(-c2ccccc2)cc1 [Compound B-19],93.2%
4,Cc1cccc(NS(=O)(=O)c2cccc([N+](=O)[O-])c2)c1 [Compound B-36],79.2%

# Same assay, conditions: Canis lupus familiaris, MDCK, 24 h, Table 6, 10 μM compound, then HGF, percentage like untreated controls (unstimulated cells = maximal effect, HGF only = nil)
row,SMILES,inhibition at 10 µM
1,CCOC(=O)c1[nH]c2c(c1C)C(=O)CC(c1ccco1)C2 (stereo not drawn) [Compound C-4],62.2%
2,Cc1c(C(=O)OCc2ccccc2)[nH]c2c1C(=O)CC(c1cccs1)C2 (stereo not drawn) [Compound C-5],41.6%
3,CCOC(=O)c1[nH]c2c(c1C)C(=O)CC(c1ccc(OC)cc1)C2 (stereo not drawn) [Compound C-13],< 5%

# Same assay, conditions: Table 1; 10 μM compound, then HGF, 24 hours; percentage like untreated controls (unstimulated cells = maximal effect, HGF only = nil)
row,SMILES,Assay Value
1,O=C1CC(c2ccccc2C(F)(F)F)c2cc3c(cc2N1)CCC3 (stereo not drawn) [Compound 28],95.2%
2,COc1cc(Br)c(C2CC(=O)Nc3cc4c(cc32)OCCO4)cc1OC (stereo not drawn) [Compound 5],29.3%
3,O=C1CC(c2ccccc2F)c2cc3c(cc2N1)OCCO3 (stereo not drawn) [Compound 12],23.4%
4,COc1cccc(C2CC(=O)Nc3cc4c(cc32)OCCO4)c1OC (stereo not drawn) [Compound 23],69.3%
5,COc1cc(C2CC(=O)Nc3cc4c(cc32)OCCO4)cc(Br)c1OC (stereo not drawn) [Compound 6],52.2%
6,O=C1CC(c2ccc(F)c(Br)c2)c2cc3c(cc2N1)OCCO3 (stereo not drawn) [Compound 21],11.2%

# Same assay, conditions: Table 2; 10 μM compound, then HGF, 24 hours; percentage like untreated controls (unstimulated cells = maximal effect, HGF only = nil)
row,SMILES,Assay Value
1,O=C1CC(c2cccc(Cl)c2)c2cc3c(cc2N1)CCC3 (stereo not drawn) [Compound 96],<5%
2,O=C1CC(c2cccc(F)c2)c2cc3c(cc2N1)OCCO3 (stereo not drawn) [Compound 44],<5%
3,CCCCOc1ccccc1C1CC(=O)Nc2cc(OC)c(OC)cc21 (stereo not drawn) [Compound 47],<5%
4,CSc1ccc(C2CC(=O)Nc3cc4c(cc32)OCCO4)cc1 (stereo not drawn) [Compound 68],<5%
5,COc1cccc(C2CC(=O)Nc3cc4c(cc32)CCC4)c1OC (stereo not drawn) [Compound 92],<5%
6,Cc1ccccc1C1CC(=O)Nc2cc3c(cc21)OCCO3 (stereo not drawn) [Compound 45],<5%
7,O=C1CC(c2ccccc2[N+](=O)[O-])c2cc3c(cc2N1)OCCO3 (stereo not drawn) [Compound 67],<5%
8,COc1cc2c(cc1OC)C(c1cc(Br)ccc1OC)CC(=O)N2 (stereo not drawn) [Compound 66],<5%
9,COc1cc2c(cc1OC)C(c1cccc(Br)c1)CC(=O)N2 (stereo not drawn) [Compound 59],<5%
10,Cc1ccc(C2CC(=O)Nc3cc4c(cc32)OCO4)cc1Br (stereo not drawn) [Compound 89],<5%
11,O=C1CC(c2ccccc2Br)c2cc3c(cc2N1)OCCO3 (stereo not drawn) [Compound 36],<5%
12,COc1ccc(C2CC(=O)Nc3cc4c(cc32)OCO4)cc1Cl (stereo not drawn) [Compound 84],<5%
13,COc1cc2c(cc1OC)C(c1cc(F)ccc1F)CC(=O)N2 (stereo not drawn) [Compound 72],<5%
14,Cc1ccc(C2CC(=O)Nc3cc4c(cc32)OCCO4)cc1 (stereo not drawn) [Compound 54],<5%
15,O=C1CC(c2ccccc2C(F)(F)F)c2cc3c(cc2N1)OCO3 (stereo not drawn) [Compound 87],<5%
16,O=C1CC(c2ccccc2Cl)c2cc3c(cc2N1)OCCO3 (stereo not drawn) [Compound 37],<5%

# Same assay, conditions: Table 3; 10 μM compound, then HGF, 24 hours; percentage like untreated controls (unstimulated cells = maximal effect, HGF only = nil)
row,SMILES,Assay Value
1,COc1cc(CNc2ccc(C)c(Cl)c2)cc(I)c1OC [Compound A-20],81.9%

# Source: patent US20130158035A1, “[…] COMPOUNDS” (Brigham Young University, priority 2010, published 2013)
